Test results from patent US4678783A, “Substituted isoquinolinesulfonyl compounds” (Asahi Kasei Kogyo Kabushiki Kaisha, priority 1984, dated 1987).
Read-outs that look alike come from different tables or passages of the source.

Experiments:
vertebral artery = test: Blood Flow Volume Increase of Vertebral Artery; assay type: in vivo, Mongrel dogs; details: intravenous, 0.3 mg/kg, anesthetized dogs
Procedure: (§1) A plethysmographic probe (manufactured and sold by NIHON KODEN CO., LTD.) was mounted on the femoral and vertebral arteries, and blood flow volume was measured by means of a electromagnetic blood flowmeter (type:MF-27, manufactured and sold by NIHON KODEN CO., LTD.). Under these conditions, compounds of the present invention were intravenously administered through a polyethylene tube inserted to a femoral veinlet, and change in blood flow volume was measured by means of the electromagnetic blood flowmeter.
(§2) Effect of the compounds of the present invention on dilation of femoral and vertebral arteries was examined according to the method as mentioned hereinbefore.

Acute Toxicity = details: mouse, in vivo; ddY male mice
Procedure: Acute toxicity of the compounds of the present invention was determined according to the method given below, and the results are shown in Table 15. […] It is known from the results that the acute toxicity of the compounds of the present invention is satisfactorily low.
Using ddY male mice, acute toxicity of the compounds of the present invention was examined according to the method proposed by K. Takagi et al. (K. Takagi and H. Ozawa, "Experimental Techniques in Pharmacology," p200-206 (1960), NANZANDO CO., LTD.).
Acute toxicity test of the compounds of the present invention was effected according to the method as mentioned hereinbefore.

femoral artery = test: Blood Flow Volume Increase of Femoral Artery; assay type: in vivo, Mongrel dogs; details: intravenous, 0.3 mg/kg, anesthetized dogs
Procedure: as §1, §2

basilar artery = test: Effect on a "Two-Hemorrhage" Canine Model of Delayed Cerebral Vasospasm; assay type: in vivo, Mongrel dogs; details: intravenous infusion over 30 minutes on Day 7
Excerpt: The isoquinolinesulfonyl compound represented by the formula (I) and salt thereof with a pharmacologically acceptable acid according to the present invention can increase the diameter of a blood vessel, and have an excellent smooth muscle relaxation action for a blood vessel, an excellent flow volume increase action for blood and an antihypertensive action. […] The above-mentioned relaxation action for a blood vessel was confirmed by the relaxation of the mesenteric artery of a rabbit in accordance with the method described later. The above-mentioned flow volume increase action for blood was confirmed by the blood flow volume increase of dog's femoral and vertebral arteries in accordance with the method described later. The above-mentioned antihypertensive action was confirmed by the indirect tail plethysmographic method of systolic blood pressure after oral administration of test drugs using male spontaneously hypertensive rats in accordance with the method described later. The effects of the isoquinolinesulfonyl derivatives of this invention on a "two-hemorrhage" canine model of delayed cerebral vasospasm were examined. The method of inducing a cerebral vasospasm was the same as that reported by Varsos et al. (Journal of Neurosurgery, volume 58, p11-17, 1983). […] As far as is known, these isoquinolinesulfonyl derivatives are the first drugs which can reverse "two-hemorrhage" cerebral vasospasm by its systemic use.
Mongrel dogs of either sex weighing 7 to 11 kg were used. All procedures were performed under anesthesia with sodium pentobarbital (20 to 30 mg/kg, intravenous administration) after premedication with ketamine hydrochloride (12 mg/kg, intramuscular administration) and spontaneous respiration through an endotracheal intubation.
The method of inducing a "two-hemorrhage" canine model of subarachnoid hemorrhage was essentially the same as that reported by Varsos et al. (Journal of Neurosurgery, volume 58, p 11-17, 1983); two successive administrations were effected, two days apart (on Day 1 and Day 3), of fresh autogenous blood into the cisterna magna. A control angiogram was taken by a direct puncture of the vertebral artery on Day 1 before the blood injection. The second angiogram was made to confirm the presence of a vasospasm on Day 7.
On Day 7, after the occurrence of a chronic vasospasm was confirmed by the second angiogram, the compounds of the present invention were intrvenously infused from the femoral vein with a Harvard pump over a period of 30 minutes. Angiograms were taken from the initiation of the infusion.
The diameter of the basilar artery was measured on the angiogram by means of a microdensitometer (SAKURA DENSITOMETER PD-7R). The effect on this cerebral vasospasm model of the compounds of the present invention was expressed as an increased percentage of the diameter after the infusion of the compounds of the present invention to that before the infusion.
Effect of the compounds of the present invention on a "two-hemorrhage" canine model of delayed cerebral vesospasm was examined according to the method as mentioned hereinbefore.

[1] = test system: mesenteric artery of a rabbit; test: Relaxation of Mesenteric Artery (KCl-contracted spiral strip); design: species or system rabbit of Japanese local variety; details: Oryctolagus cuniculus
Procedure: A rabbit of Japanese local variety weighing about 3 kg was subjected to blood-letting to death. Then, abdomen of the rabbit was dissected to pick up a mesenteric artery. […] Thus, the shrinkage and relaxation of the artery was ready to be measured as a load on the transducer. To the organ bath, KCl was added in an amount which makes the artery shrink at a half length that in 15 to 20 mM aqueous solution. Then, hydrochlorides of the compounds of the present invention were added to the organ bath to observe relaxation effect on the artery.
Effect of the compounds of the present invention on relaxation of mesenteric artery was examined according to the method as mentioned hereinbefore.

[2] = test system: male spontaneously hypertensive rats (SHR); test: Reduction of Blood Pressure (systolic, tail plethysmographic method, oral); assay type: in vivo, rat (SHR, Wister Kyoto); details: 100 mg/kg
Procedure: Male spontaneously hypertensive rats (SHR, Wister Kyoto) weighing 300 to 350 g were used. Systolic blood pressure was measured indirectly by the tail plethysmographic method in conscious SHR, just prior to, and 1, 2, 4 and 6 hours after oral administration of test drugs. Test drugs, dissolved in deionized water, were administered orally in a volume of 10 ml-solution/kg-rat. Reduction in systolic blood pressure (ΔP, mmHg) was calculated by substracting a systolic blood pressure after administration from that just prior to administration.
Effect of the compounds of the present invention on reduction of blood pressure was examined according to the method as mentioned hereinbefore.

| SMILES | Increase in vertebral artery blood flow (vertebral artery) | LD50 (Acute Toxicity) | Increase in femoral artery blood flow (femoral artery) | Increase in diameter of basilar artery (basilar artery; 1 mg/kg) | Increase in diameter of basilar artery (basilar artery; 3 mg/kg) | Increase in diameter of basilar artery (basilar artery; 10 mg/kg) | EC50 ([1]; concentration of the hydrochloride attaining 50% of complete relaxation, rabbit mesenteric artery contracted with KCl, read-out: ED50 (the source's name)) | ΔPmax (maximally reduced blood pressure) [2] | EC50 ([1]; read-out: ED50) |
| --- | --- | --- | --- | --- | --- | --- | --- | --- | --- |
| O=S(=O)(c1cccc2cnccc12)N1CCCNCC1 [Compound (1), 1-(5-isoquinolinesulfonyl)homopiperazine] | 160% | 73.5 mg/kg | 48% | 21% | 33% | 45% | 0.8 µM | 80 mmHg | – |
| O=S(=O)(c1cccc2c(O)nccc12)N1CCCNCC1 [Compound (83), 1-(1-hydroxy-5-isoquinolinesulfonyl)homopiperazine] | 48% | 145 mg/kg | 30% | – | 19% | 20% | – | 42 mmHg | 3 µM |
